Non-standard residues stand in square brackets, D forms with d. *: point of attachment. Phe(3,4-Cl2) = N[C@@H](Cc1ccc(Cl)c(Cl)c1)C(=O)O; Phe(F5) = N[C@@H](Cc1c(F)c(F)c(F)c(F)c1F)C(=O)O; Phe(3,4-F2) = N[C@@H](Cc1ccc(F)c(F)c1)C(=O)O; Phe(2-Cl) = N[C@@H](Cc1ccccc1Cl)C(=O)O; Phe(2-F) = N[C@@H](Cc1ccccc1F)C(=O)O; ACC = NC(=O)Cc1cc(=O)oc2cc(N*)ccc12; Met(O) = CS(=O)CC[C@H](N)C(=O)O; Tic = O=C(O)[C@@H]1Cc2ccccc2CN1; dOrn = NCCC[C@@H](N)C(=O)O; Orn = NCCC[C@H](N)C(=O)O; Dab = NCC[C@H](N)C(=O)O
Assays:
Type in all cases: biochemical
cathepsin K [1] = biological target: T1, cathepsin K (Homo sapiens, UniProt P43235); assay: Substrate selectivity screening, rate of hydrolysis, cathepsin K; settings: Table S4; substrate 100µM, cathepsin 5nM; pH 5.5, 37 °C; average of at least three screenings
T1 construct: made in house
T1 sequence (P43235 115-329): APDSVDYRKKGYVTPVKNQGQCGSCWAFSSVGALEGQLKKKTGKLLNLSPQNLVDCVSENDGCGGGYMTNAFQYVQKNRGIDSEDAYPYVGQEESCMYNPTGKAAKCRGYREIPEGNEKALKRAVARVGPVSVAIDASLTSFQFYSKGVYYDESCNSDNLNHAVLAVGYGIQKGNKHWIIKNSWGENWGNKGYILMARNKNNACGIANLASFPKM
Procedure: (§1) All kinetic experiments were performed using fMax (Molecular Devices) and CLARIOStar (BMG LABTECH) spectrofluorimeters operating in kinetic mode using 96-well plates. ACC-labeled substrates were screened using 355 nm and 460 nm wavelengths (excitation and emission, respectively). […] The buffer was prepared at room temperature and the enzyme kinetic studies were performed at 37 °C.
(§2) All potentially selective cathepsin L substrates were tested for their selectivity against a panel of five different cathepsins, containing cathepsins L, V, S, K and […], at concentrations of 2 μM and 100 μM. To obtain reliable results the concentration of each cathepsin was 5 nM. Substrate hydrolysis was carried out for 10 min (for cathepsin L) and for up to 60 min (for other cathepsins). Hydrolysis rates (RFU s^–1) are presented as average values from at least three screenings.

cathepsin L [2] = biological target: T2, cathepsin L (Homo sapiens, UniProt P07711); assay: Substrate selectivity screening, rate of hydrolysis, cathepsin L; settings: Table S4; substrate 100µM, cathepsin 5nM; pH 5.5, 37 °C; average of at least three screenings
T2 construct: made in house
Procedure: as §1, §2

cathepsin K [3] = biological target: T1, cathepsin K; assay: Kinetic parameters of ACC substrates with cathepsin K; settings: Fig. 5B; pH 5.5, 37 °C; cathepsin K 5–20 nM; triplicate, SD below 15%
Procedure: as §1
(§3) Classic substrate velocity plots were analyzed according to Michaelis–Menten kinetics and a detailed protocol for the determination of kinetic parameters for ACC-tagged substrates is found elsewhere.[56] […] Experiments were repeated at least three times and results are presented as an average. The SDs were below 15%.

cathepsin B [4] = biological target: T3, cathepsin B (Homo sapiens, UniProt P07858); assay: Kinetic parameters of ACC substrates with cathepsin B; settings: Fig. 5B; pH 5.5, 37 °C; cathepsin B 4–15 nM; triplicate, SD below 15%
T3 construct: made in house
Procedure: as §1, §3

cathepsin L [5] = biological target: T2, cathepsin L; assay: Kinetic parameters of ACC substrates with cathepsin L; settings: pH 5.5, 37 °C, cathepsin L 0.1–0.5 nM, SD below 15%
Procedure: as §1, §3

cathepsin B [6] = biological target: T3, cathepsin B; assay: Substrate selectivity screening, rate of hydrolysis, cathepsin B; settings: Table S4; substrate 100µM, cathepsin 5nM; pH 5.5, 37 °C; average of at least three screenings
Procedure: as §1, §2

cathepsin S [7] = biological target: T4, cathepsin S (Homo sapiens, UniProt P25774); assay: Substrate selectivity screening, rate of hydrolysis, cathepsin S; settings: Table S4; substrate 100µM, cathepsin 5nM; pH 5.5, 37 °C; average of at least three screenings
T4 construct: made in house
Procedure: as §1, §2

cathepsin V [8] = biological target: T5, cathepsin V (Homo sapiens, UniProt O60911); assay: Substrate selectivity screening, rate of hydrolysis, cathepsin V; settings: Table S4; substrate 100µM, cathepsin 5nM; pH 5.5, 37 °C; average of at least three screenings
T5 construct: made in house
Procedure: as §1, §2

cathepsin S [9] = biological target: T4, cathepsin S; assay: Kinetic parameters of ACC substrates with cathepsin S; settings: Fig. 5B; pH 5.5, 37 °C; cathepsin S 5–20 nM; triplicate, SD below 15%
Procedure: as §1, §3

cathepsin V [10] = biological target: T5, cathepsin V; assay: Kinetic parameters of ACC substrates with cathepsin V; settings: Fig. 5B; pH 5.5, 37 °C; cathepsin V 10–20 nM; triplicate, SD below 15%
Procedure: as §1, §3

cathepsin L [11] = biological target: T2, cathepsin L; assay: kobs/I of activity-based probes, cathepsin L; settings: Fig. 6A; pseudo-first order, probe at least 5-fold excess over cathepsin, 100 μM ACC substrate; pH 5.5, 37 °C; triplicate, SD below 20%
Procedure: as §1
(§4) For the kinetic studies, five recombinant human cathepsins (B, L, V, K and S) were expressed and purified and active site titrated using an E64 inhibitor. The kobs/I parameter was measured under pseudo-first order kinetic conditions, as described.[40] The cathepsin of interest was mixed with various concentrations of probe (at least 5-fold excess over cathepsin) and 100 μM ACC-fluorescence substrate. The experiments were repeated at least three times, and the results are presented as an average. The SDs were below 20%.

cathepsin K [12] = biological target: T1, cathepsin K; assay: kobs/I of activity-based probes, cathepsin K; settings: Fig. 6A; pseudo-first order, probe at least 5-fold excess over cathepsin, 100 μM ACC substrate; pH 5.5, 37 °C; triplicate, SD below 20%
Procedure: as §1, §4

cathepsin S [13] = biological target: T4, cathepsin S; assay: kobs/I of activity-based probes, cathepsin S; settings: Fig. 6A; pseudo-first order, probe at least 5-fold excess over cathepsin, 100 μM ACC substrate; pH 5.5, 37 °C; triplicate, SD below 20%
Procedure: as §1, §4

cathepsin B [14] = biological target: T3, cathepsin B; assay: kobs/I of activity-based probes, cathepsin B; settings: Fig. 6A; pseudo-first order, probe at least 5-fold excess over cathepsin, 100 μM ACC substrate; pH 5.5, 37 °C; triplicate, SD below 20%
Procedure: as §1, §4

cathepsin V [15] = biological target: T5, cathepsin V; assay: kobs/I of activity-based probes, cathepsin V; settings: Fig. 6A; pseudo-first order, probe at least 5-fold excess over cathepsin, 100 μM ACC substrate; pH 5.5, 37 °C; triplicate, SD below 20%
Procedure: as §1, §4

T4 sequence (P25774 115-331): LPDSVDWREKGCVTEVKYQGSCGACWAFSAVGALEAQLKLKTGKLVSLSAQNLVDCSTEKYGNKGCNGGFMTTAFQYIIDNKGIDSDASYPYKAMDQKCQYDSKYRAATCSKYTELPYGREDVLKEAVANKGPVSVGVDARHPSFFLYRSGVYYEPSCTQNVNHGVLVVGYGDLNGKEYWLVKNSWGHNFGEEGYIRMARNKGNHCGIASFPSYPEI
T2 sequence (P07711 114-333): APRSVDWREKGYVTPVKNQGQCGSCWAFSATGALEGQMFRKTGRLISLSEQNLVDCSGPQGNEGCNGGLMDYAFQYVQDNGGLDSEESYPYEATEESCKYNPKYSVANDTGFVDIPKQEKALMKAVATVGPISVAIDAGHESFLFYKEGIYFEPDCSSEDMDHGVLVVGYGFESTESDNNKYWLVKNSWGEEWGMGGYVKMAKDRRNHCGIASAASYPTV
T5 sequence (O60911 114-334): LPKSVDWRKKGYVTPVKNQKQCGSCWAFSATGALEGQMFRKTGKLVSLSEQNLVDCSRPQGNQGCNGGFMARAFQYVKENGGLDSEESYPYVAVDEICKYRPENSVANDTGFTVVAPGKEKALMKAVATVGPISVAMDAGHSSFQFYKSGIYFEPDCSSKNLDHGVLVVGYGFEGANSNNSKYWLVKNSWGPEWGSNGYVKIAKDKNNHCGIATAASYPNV

Row | Relative substrate activity (rate of hydrolysis), cathepsin K (cathepsin K [1]) [RFU/s] | Relative substrate activity (rate of hydrolysis), cathepsin L (cathepsin L [2]) [RFU/s] | Relative substrate activity (rate of hydrolysis), cathepsin B (cathepsin B [6]) [RFU/s] | Relative substrate activity (rate of hydrolysis), cathepsin S (cathepsin S [7]) [RFU/s] | Relative substrate activity (rate of hydrolysis), cathepsin V (cathepsin V [8]) [RFU/s] | Substance | kobs/I Cath-L (cathepsin L [11]) | kobs/I Cath-K (cathepsin K [12]) | kobs/I Cath-S (cathepsin S [13]) | kobs/I Cath-B (cathepsin B [14]) | kobs/I Cath-V (cathepsin V [15]) | other results
1 | – | – | – | – | – | Cy3-6-ahx-Ala-Arg-Leu-Arg-AOMK [MP-pc3, Cy3-labeled pan-cathepsin probe] | 16,900 M^-1s^-1 | 1,350 M^-1s^-1 | 69,000 M^-1s^-1 | 75,400 M^-1s^-1 | 6,700 M^-1s^-1 | –
2 | – | – | – | – | – | biotin-6-ahx-His-DThr-Phe(F5)-Lys-AOMK [MP-cL2] | 10,500 M^-1s^-1 | < 100 M⁻¹ s⁻¹ | < 100 M⁻¹ s⁻¹ | 1,250 M^-1s^-1 | 360 M⁻¹ s⁻¹ | –
3 | 1.5 | 901 | 65.1 | 4.4 | 306 | Ac-H[dL][Phe(3,4-Cl2)]R-{ACC} (SMILES CC(=O)N[C@@H](Cc1c[nH]cn1)C(=O)N[C@H](CC(C)C)C(=O)N[C@@H](Cc1ccc(Cl)c(Cl)c1)C(=O)N[C@@H](CCCNC(=N)N)C(=O)Nc1ccc2c(CC(N)=O)cc(=O)oc2c1) | – | – | – | – | – | –
4 | 0.2 | 825 | 41.2 | 2.8 | 28.4 | Ac-[Tic][Dab][Phe(3,4-F2)]R-{ACC} (SMILES CC(=O)N1Cc2ccccc2C[C@H]1C(=O)N[C@@H](CCN)C(=O)N[C@@H](Cc1ccc(F)c(F)c1)C(=O)N[C@@H](CCCNC(=N)N)C(=O)Nc1ccc2c(CC(N)=O)cc(=O)oc2c1) | – | – | – | – | – | –
5 | – | – | – | – | – | biotin-6-ahx-His-DThr-Phe(F5)-Arg-AOMK [MP-cL1] | 26,600 M^-1s^-1 | < 100 M⁻¹ s⁻¹ | < 100 M⁻¹ s⁻¹ | 1,900 M^-1s^-1 | 780 M⁻¹ s⁻¹ | –
6 | 4.6 | 844 | 189 | 3.4 | 346 | Ac-A[Orn][Phe(3,4-Cl2)]R-{ACC} (SMILES CC(=O)N[C@@H](C)C(=O)N[C@@H](CCCN)C(=O)N[C@@H](Cc1ccc(Cl)c(Cl)c1)C(=O)N[C@@H](CCCNC(=N)N)C(=O)Nc1ccc2c(CC(N)=O)cc(=O)oc2c1) | – | – | – | – | – | –
7 | 0.3 | 153 | 0.0 | 0.0 | 0.0 | Ac-H[dL][Phe(F5)][Orn]-{ACC} (SMILES CC(=O)N[C@@H](Cc1c[nH]cn1)C(=O)N[C@H](CC(C)C)C(=O)N[C@@H](Cc1c(F)c(F)c(F)c(F)c1F)C(=O)N[C@@H](CCCN)C(=O)Nc1ccc2c(CC(N)=O)cc(=O)oc2c1) | – | – | – | – | – | –
8 | 0.2 | 658 | 76.2 | 21.1 | 129 | Ac-[Met(O)][dR][Phe(2-F)]R-{ACC} (SMILES CC(=O)N[C@@H](CCS(C)=O)C(=O)N[C@H](CCCNC(=N)N)C(=O)N[C@@H](Cc1ccccc1F)C(=O)N[C@@H](CCCNC(=N)N)C(=O)Nc1ccc2c(CC(N)=O)cc(=O)oc2c1) | – | – | – | – | – | –
9 | – | – | – | – | – | BODIPYFL-6-ahx-Ala-Arg-Leu-Arg-AOMK [MP-pc2, BDPFL-6-ahx-Ala-Arg-Leu-Arg-AOMK, BODIPY-FL-labeled pan-cathepsin probe] | 8,200 M^-1s^-1 | 350 M⁻¹ s⁻¹ | 18,500 M^-1s^-1 | 23,200 M^-1s^-1 | 9,800 M^-1s^-1 | –
10 | 0.0 | 134 | 3.1 | 10.3 | 36.1 | Ac-[Tic][dOrn][Phe(2-Cl)]K-{ACC} (SMILES CC(=O)N1Cc2ccccc2C[C@H]1C(=O)N[C@H](CCCN)C(=O)N[C@@H](Cc1ccccc1Cl)C(=O)N[C@@H](CCCCN)C(=O)Nc1ccc2c(CC(N)=O)cc(=O)oc2c1) [Tic-DArg-Phe(2-Cl)-Lys] | – | – | – | – | – | –
11 | 1.2 | 25.3 | 16.9 | 0.0 | 0.0 | Ac-A[dK]K(Ac)R-{ACC} (SMILES CC(=O)NCCCC[C@H](NC(=O)[C@@H](CCCCN)NC(=O)[C@H](C)NC(C)=O)C(=O)N[C@@H](CCCNC(=N)N)C(=O)Nc1ccc2c(CC(N)=O)cc(=O)oc2c1) | – | – | – | – | – | –

Row | Substance | Relative substrate activity (rate of hydrolysis), cathepsin K (cathepsin K [1]) [RFU/s] | Relative substrate activity (rate of hydrolysis), cathepsin L (cathepsin L [2]) [RFU/s] | Relative substrate activity (rate of hydrolysis), cathepsin B (cathepsin B [6]) [RFU/s] | Relative substrate activity (rate of hydrolysis), cathepsin S (cathepsin S [7]) [RFU/s] | Relative substrate activity (rate of hydrolysis), cathepsin V (cathepsin V [8]) [RFU/s] | kobs/I Cath-L (cathepsin L [11]) | kobs/I Cath-K (cathepsin K [12]) | kobs/I Cath-S (cathepsin S [13]) | kobs/I Cath-B (cathepsin B [14]) | kobs/I Cath-V (cathepsin V [15]) | other results
12 | Ac-H[dV][Phe(F5)]R-{ACC} (SMILES CC(=O)N[C@@H](Cc1c[nH]cn1)C(=O)N[C@@H](C(=O)N[C@@H](Cc1c(F)c(F)c(F)c(F)c1F)C(=O)N[C@@H](CCCNC(=N)N)C(=O)Nc1ccc2c(CC(N)=O)cc(=O)oc2c1)C(C)C) | 1.1 | 706 | 0.7 | 0.0 | 4.4 | – | – | – | – | – | kcat/KM Cath-K (cathepsin K [3]): < 10 M⁻¹ s⁻¹; kcat/KM Cath-B (cathepsin B [4]): 252 M⁻¹ s⁻¹; kcat/KM Cath-L (cathepsin L [5]; Fig. 5B, triplicate): 747,400 M^-1s^-1; kcat/KM Cath-S (cathepsin S [9]): < 10 M⁻¹ s⁻¹; kcat/KM Cath-V (cathepsin V [10]): 539 M⁻¹ s⁻¹
13 | Ac-HRFR-{ACC} (SMILES CC(=O)N[C@@H](Cc1c[nH]cn1)C(=O)N[C@@H](CCCNC(=N)N)C(=O)N[C@@H](Cc1ccccc1)C(=O)N[C@@H](CCCNC(=N)N)C(=O)Nc1ccc2c(CC(N)=O)cc(=O)oc2c1) [reference compound] | 24.5 | 875 | 272 | 40.3 | 224 | – | – | – | – | – | kcat/KM (cathepsin L [5]; Fig. 4B, ACC substrates, 100 mM sodium acetate, 100 mM NaCl, 10 mM DTT, 1 mM EDTA, average of at least three): 13,050,000 M^-1s^-1
